Experimental data reported in ChEMBL document CHEMBL2401638, “Design and synthesis of biquinolone-isoniazid hybrids as a new class of antitubercular and antimicrobial agents” (Eur J Med Chem, 2013).
In brackets after ≈: the same amount, converted by molar mass.

Legend:
[1] = Cytotoxicity in Artemia cysts assessed as mortality of nauplii after 24 hrs; type: organism-based; details: in vivo
[2] = system: Mycobacterium tuberculosis; assay: Antituberculosis activity against Mycobacterium tuberculosis H37Rv assessed as growth inhibition at 250 ug/ml after 12 to 28 days by Lowenstein-Jensen method relative to control; type: functional; details: read-out: GI
Trichophyton rubrum = assay: Antifungal activity against Trichophyton rubrum MTCC 296 assessed as growth inhibition by broth microdilution method; type: functional
Candida albicans = assay: Antifungal activity against Candida albicans MTCC 227 assessed as growth inhibition by broth microdilution method; type: functional
Pseudomonas aeruginosa = assay: Antibacterial activity against Pseudomonas aeruginosa MTCC 1688 assessed as growth inhibition by broth microdilution method; type: functional
Salmonella typhi = assay: Antibacterial activity against Salmonella typhi MTCC 98 assessed as growth inhibition by broth microdilution method; type: functional, Salmonella enterica subsp. enterica serovar Typhi; details: Salmonella enterica
Clostridium tetani = assay: Antibacterial activity against Clostridium tetani MTCC 449 assessed as growth inhibition by broth microdilution method; type: functional
Escherichia coli = assay: Antibacterial activity against Escherichia coli MTCC 443 assessed as growth inhibition by broth microdilution method; type: functional
Staphylococcus aureus = assay: Antibacterial activity against Staphylococcus aureus MTCC 96 assessed as growth inhibition by broth microdilution method; type: functional
Bacillus subtilis = assay: Antibacterial activity against Bacillus subtilis MTCC 441 assessed as growth inhibition by broth microdilution method; type: functional
[3] = Cytotoxicity in Artemia cysts assessed as mortality of nauplii at 40 ug/mL after 24 hrs relative to control; type: organism-based; details: in vivo
[4] = Cytotoxicity in Artemia cysts assessed as mortality of nauplii at 50 ug/mL after 24 hrs relative to control; type: organism-based; details: in vivo
[5] = Cytotoxicity in Artemia cysts assessed as mortality of nauplii at 30 ug/mL after 24 hrs relative to control; type: organism-based; details: in vivo
[6] = Cytotoxicity in Artemia cysts assessed as mortality of nauplii at 20 ug/mL after 24 hrs relative to control; type: organism-based; details: in vivo
[7] = Cytotoxicity in Artemia cysts assessed as mortality of nauplii at 10 ug/mL after 24 hrs relative to control; type: organism-based; details: in vivo
[8] = Cytotoxicity in Artemia cysts assessed as mortality of nauplii at 5 ug/mL after 24 hrs relative to control; type: organism-based; details: in vivo
[9] = system: Mycobacterium tuberculosis; assay: Antituberculosis activity against Mycobacterium tuberculosis H37Rv assessed as growth inhibition after 12 to 28 days by Lowenstein-Jensen method; type: functional

Compound | LC50 at 24 h [1] [µg/mL] | inhibition of growth at 250 µg/mL [2] [%] | MIC (Trichophyton rubrum) [µg/mL] | MIC (Candida albicans) [µg/mL] | MIC (Pseudomonas aeruginosa) [µg/mL] | MIC (Salmonella typhi) [µg/mL] | MIC (Clostridium tetani) [µg/mL] | MIC (Escherichia coli) [µg/mL] | MIC (Staphylococcus aureus) [µg/mL] | MIC (Bacillus subtilis) [µg/mL] | mortality at 24 h, 40 ug/mL [3] [%] | mortality at 24 h, 50 ug/mL [4] [%] | mortality at 24 h, 30 ug/mL [5] [%] | mortality at 24 h, 20 ug/mL [6] [%] | mortality at 24 h, 10 ug/mL [7] [%] | mortality at 24 h, 5 ug/mL [8] [%] | MIC [9] [µg/mL]
COc1cc([C@@H]2c3cc4c(cc3[C@@H](O[C@@H]3O[C@@H]5CO[C@@H](C)O[C@H]5[C@H](O)[C@H]3O)[C@H]3COC(=O)[C@H]23)OCO4)cc(OC)c1O [ETOPOSIDE] | 7.46 (≈ 12.7 µM) |  |  |  |  |  |  |  |  |  |  |  |  |  |  |  | 
C=CCn1c(=O)c(C2C(C(=O)OCC)=C(N)N(NC(=O)c3ccncc3)C3=C2C(=O)CC(C)(C)C3)cc2cc(Cl)ccc21 (centres undefined) |  | 56 | 500 | 1000 | 100 | 200 | 250 | 200 | 250 | 200 |  |  |  |  |  |  | 
C=CCn1c(=O)c(C2C(C(=O)OCC)=C(N)N(NC(=O)c3ccncc3)C3=C2C(=O)CC(C)(C)C3)cc2cc(OC)ccc21 (centres undefined) | 26.6 (≈ 44.5 µM) | 96 | 1000 | 500 | 125 | 125 | 250 | 250 | 200 | 125 | 60 | 80 | 50 | 30 | 20 | 10 | 100 (≈ 167 µM)
C=CCn1c(=O)c(C2C(C(=O)OC(C)C)=C(N)N(NC(=O)c3ccncc3)C3=C2C(=O)CCC3)cc2cc(Cl)ccc21 (centres undefined) |  | 89 | 500 | 500 | 200 | 500 | 200 | 250 | 200 | 200 |  |  |  |  |  |  | 
C=CCn1c(=O)c(C2C(C(=O)OC)=C(N)N(NC(=O)c3ccncc3)C3=C2C(=O)CC(C)(C)C3)cc2ccccc21 (centres undefined) |  | 74 | > 1000 | 250 | 125 | 200 | 200 | 200 | 200 | 125 |  |  |  |  |  |  | 
CC1(C)S[C@@H]2[C@H](NC(=O)[C@H](N)c3ccccc3)C(=O)N2[C@H]1C(=O)O [AMPICILLIN] |  |  |  |  |  | 100 | 250 | 100 | 250 | 250 |  |  |  |  |  |  | 
C=CCn1c(=O)c(C2C(C(=O)OCC)=C(N)N(NC(=O)c3ccncc3)C3=C2C(=O)CC(C)(C)C3)cc2ccccc21 (centres undefined) |  | 84 | 500 | 250 | 500 | 100 | 500 | 50 | 250 | 500 |  |  |  |  |  |  | 
NNC(=O)c1ccncc1 [ISONIAZID] |  | 99 |  |  |  |  |  |  |  |  |  |  |  |  |  |  | 0.2 (≈ 1.46 µM)
CCn1cc(C(=O)O)c(=O)c2cc(F)c(N3CCNCC3)cc21 [NORFLOXACIN] |  |  |  |  | 10 | 10 | 50 | 10 | 10 | 100 |  |  |  |  |  |  | 
CO[C@H]1/C=C/O[C@@]2(C)Oc3c(C)c(O)c4c(O)c(c(/C=N/N5CCN(C)CC5)c(O)c4c3C2=O)NC(=O)/C(C)=C\C=C\[C@H](C)[C@H](O)[C@@H](C)[C@@H](O)[C@@H](C)[C@H](OC(C)=O)[C@@H]1C [RIFAMPIN] |  | 98 |  |  |  |  |  |  |  |  |  |  |  |  |  |  | 40 (≈ 48.6 µM)
C=CCn1c(=O)c(C2C(C(=O)OC)=C(N)N(NC(=O)c3ccncc3)C3=C2C(=O)CC(C)(C)C3)cc2cc(OC)ccc21 (centres undefined) |  | 45 | 500 | 1000 | 250 | 200 | 200 | 200 | 250 | 250 |  |  |  |  |  |  | 
O=C(O)c1cn(C2CC2)c2cc(N3CCNCC3)c(F)cc2c1=O [CIPROFLOXACIN] |  |  |  |  |  | 25 |  | 25 | 50 |  |  |  |  |  |  |  | 
C=CCn1c(=O)c(C2C(C(=O)OC(C)C)=C(N)N(NC(=O)c3ccncc3)C3=C2C(=O)CC(C)(C)C3)cc2ccccc21 (centres undefined) |  | 78 | 250 | 1000 | 250 | 25 | 500 | 200 | 500 | 500 |  |  |  |  |  |  | 
C=CCn1c(=O)c(C2C(C(=O)OCC)=C(N)N(NC(=O)c3ccncc3)C3=C2C(=O)CCC3)cc2cc(OC)ccc21 (centres undefined) |  | 54 | 1000 | 250 | 200 | 500 | 100 | 250 | 125 | 200 |  |  |  |  |  |  | 
